Data reported in patent publication US4006238A, “Use of 2-(hydroxyalkyl)-1H-benz[de]isoquinoline-1,3(2H)-diones as anti-allergy agents” (E. R. Squibb & Sons, Inc., priority 1975, dated 1977).

System: reaginic antibody induced passive cutaneous anaphylaxis (PCA) reaction
Assay: reaginic antibody induced passive cutaneous anaphylaxis (PCA) reaction in rats
Format: in vivo
Conditions: male rat; anti-Egg Albumin intradermal; two doses of test compound (75 mg./kg.) intraperitoneally, 90 and 10 minutes prior to intravenous Egg Albumin/Evans Blue challenge; scored thirty minutes after
Description: The compounds of formula I are anti-allergics which inhibit the effects of certain antigen-antibody reactions and in particular inhibit the release of mediators such as histamine. The anti-allergy activity of these compounds is determined by the reaginic antibody induced passive cutaneous anaphylaxis (PCA) reaction in rats. (See Bach, Immediate Hypersensitivity: Laboratory Models and Experimental Findings, Ann. Rep. Med. Chem., 7: 238-248 (1972), for a discussion of the predictability of clinical efficacy of compounds active in the PCA).
The experimental procedure employed is as follows. A male rat is given an intradermal injection on one flank of 0.05 ml. of antibody (reaginic) (anti-Egg Albumin). 24 hours later two doses of test compound (75 mg./kg.) are administered intraperitoneally, one dose ninety minutes and the other ten minutes prior to a 0.5 ml. intravenous injection of an antigen challenge (equal portions of Egg Albumin 4 mg./ml. and 1% Evans Blue Dye). […] A score is obtained according to the formula
Total score = (diameter) × (intensity)
wherein the intensity of the spot is rated on a scale of 1 to 3 as follows
and the diameter is determined by averaging in millimeters two measured diameters of the reaction.
The percent inhibition is calculated by comparing the scores obtained in both compound and non-compound treated animals according to a pre-determined standard curve relationship between score and the quantity of antibody used to elicit the reaction.

Structure (SMILES) | Percent Inhibition [%]
O=C1c2cccc3cccc(c23)C(=O)N1CCCCCO [2-(5-Hydroxypentyl)-1H-benz[de]isoquinoline-1,3(2H)-dione] | 8
O=C1c2cccc3cccc(c23)C(=O)N1CCO [2-(2-Hydroxyethyl)-1H-benz[de]isoquinoline-1,3(2H)-dione] | 36
O=C1c2cccc3cccc(c23)C(=O)N1CCCCO [2-(4-Hydroxybutyl)-1H-benz[de]isoquinoline-1,3(2H)-dione] | 53
O=C1c2cccc3cccc(c23)C(=O)N1CO [2-(Hydroxymethyl)-1H-benz[de]isoquinoline-1,3(2H)-dione] | 50
O=C1c2cccc3cccc(c23)C(=O)N1CCCO [2-(3-Hydroxypropyl)-1H-benz[de]isoquinoline-1,3(2H)-dione] | 52
